Where a name gives a salt, the structure may show the parent alone.
What was measured:
MIA PaCa-2 cells = experiment: MIA PaCa2 cell-based assay (1,536-well high-content imaging ALDEFLUOR assay); parameters: species or system human; conditions: Homo sapiens, 0.5 h, ALDEFLUOR BAAA substrate 500 nM, 30 minutes
Method in brief: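 MIA PaCa-2 cells (1,000/well), plated overnight, given BAAA substrate (500 nM) plus Hoechst 33342 (0.5 nM), then compound (16-point, 1.4 nM–47.8 μM final; 0.5% DMSO). After 30 min at 37° C, ALDH activity imaged by high-content microscopy as BAA-retaining (FITC) cells versus Hoechst-stained nuclei.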

ALDH1A1 enzyme = target: T1, ALDH1A1 enzyme (Homo sapiens, UniProt P00352); experiment: ALDH1A1 enzymatic assay (in vitro); assay type: biochemical; conditions: ALDH1A1 enzyme 20 nM, NAD+ 1 mM, propionaldehyde 80 μM; read-out: ALDH1A1 IC50
T1 sequence (P00352 1-501): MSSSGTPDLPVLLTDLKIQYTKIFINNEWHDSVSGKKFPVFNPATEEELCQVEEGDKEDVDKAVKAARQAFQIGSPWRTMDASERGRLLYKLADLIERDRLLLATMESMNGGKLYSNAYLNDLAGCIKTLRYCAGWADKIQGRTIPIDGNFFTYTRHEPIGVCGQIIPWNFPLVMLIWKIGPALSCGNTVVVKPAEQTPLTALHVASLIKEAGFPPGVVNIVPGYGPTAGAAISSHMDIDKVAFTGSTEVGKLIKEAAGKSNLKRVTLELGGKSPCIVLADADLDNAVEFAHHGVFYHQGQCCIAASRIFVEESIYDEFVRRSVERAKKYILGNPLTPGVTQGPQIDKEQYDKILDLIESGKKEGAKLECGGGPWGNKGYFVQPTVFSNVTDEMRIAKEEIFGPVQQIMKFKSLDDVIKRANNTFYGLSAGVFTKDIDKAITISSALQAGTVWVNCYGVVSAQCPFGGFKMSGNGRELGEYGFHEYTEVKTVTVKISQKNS
Method in brief: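 ALDH1A1 (20 nM final) in 100 mM HEPES pH 7.5, 0.01% Tween 20 was preincubated 15 min at RT with compound (968 pM–57.2 μM final), then started with 1 mM NAD+ and 80 μM propionaldehyde. NADH fluorescence (ex 340/em 450 nm) followed kinetically for 10 min; change normalized to no-inhibitor and no-enzyme controls for percent inhibition and curve fitting.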

Row | Compound | IC50 (MIA PaCa-2 cells) | IC50 (ALDH1A1 enzyme)
1 | O=C(c1cnc2ccc(F)cc2c1N1CCC2(CCOC2=O)CC1)N1CCN(C(=O)C2CC2)CC1 [Example 248, 8-(3-(4-(cyclopropanecarbonyl)piperazine-1-carbonyl)-6-fluoroquinolin-4-yl)-2-oxa-8-azaspiro[4.5]decan-1-one] | 1000 to 10000 nM | < 500 nM
2 | CCS(=O)(=O)N1CCN(C(=O)c2cnc3cc(F)c(F)cc3c2N2CCC3(CC2)OCCO3)CC1 [Example 171, (6,7-difluoro-4-(1,4-dioxa-8-azaspiro[4.5]decan-8-yl)quinolin-3-yl)(4-(ethylsulfonyl)piperazin-1-yl)methanone] | 1000 to 10000 nM | < 500 nM
3 | N#CC1(c2ccccc2)CCN(c2c(C(=O)N3CCC(O)(C4CC4)CC3)cnc3ccc(F)cc23)CC1 [Cpd. 348, 1-(3-(4-cyclopropyl-4-hydroxypiperidine-1-carbonyl)-6-fluoroquinolin-4-yl)-4-phenylpiperidine-4-carbonitrile] | < 500 nM | < 500 nM
4 | CC1(C#N)CCN(c2c(C(=O)N3CCN(S(C)(=O)=O)CC3)cnc3cc(F)c(F)cc23)CC1 [Example 136, 1-(6,7-difluoro-3-(4-(methylsulfonyl)piperazine-1-carbonyl)quinolin-4-yl)-4-methylpiperidine-4-carbonitrile] | 1000 to 10000 nM | < 500 nM
5 | CCC(=O)N1CCN(C(=O)c2cnc3ccc(F)cc3c2N2CCC3(CC2)OCCO3)CC1 [Example 70, 1-(4-(6-fluoro-4-(1,4-dioxa-8-azaspiro[4.5]decan-8-yl)quinoline-3-carbonyl)piperazin-1-yl)propan-1-one] | 1000 to 10000 nM | < 500 nM
6 | CCOC(=O)N1CCN(C(=O)c2cnc3ccc(F)cc3c2N2CCC3(CC2)OCCO3)CC1 [Example 54, Ethyl 4-(6-fluoro-4-(1,4-dioxa-8-azaspiro[4.5]decan-8-yl)quinoline-3-carbonyl)piperazine-1-carboxylate] | > 10000 nM | < 500 nM
7 | O=C(c1cnc2ccc(F)cc2c1N1CCC2(CC1)C(=O)Cc1ccccc12)N1CCN(C(=O)C2CC2)CC1 [Example 246, 1′-(3-(4-(cyclopropanecarbonyl)piperazine-1-carbonyl)-6-fluoroquinolin-4-yl)spiro[indene-1,4′-piperidin]-2(3H)-one] | 1000 to 10000 nM | < 500 nM
8 | CN(C)S(=O)(=O)N1CCN(C(=O)c2cnc3c(F)cc(F)cc3c2N2CCC3(CC2)OCCO3)CC1 [Example 162, 4-(6,8-difluoro-4-(1,4-dioxa-8-azaspiro[4.5]decan-8-yl)quinoline-3-carbonyl)-N,N-dimethylpiperazine-1-sulfonamide] | 500 to 1000 nM | < 500 nM
9 | O=C(c1cnc2ccc(F)cc2c1N1CCC2(CC1)OCCO2)N1CCOCC1 [Example 58, (6-fluoro-4-(1,4-dioxa-8-azaspiro[4.5]decan-8-yl)quinolin-3-yl)(morpholino)methanone] | > 10000 nM | 500 to 1000 nM
10 | CC1(C#N)CCN(c2c(C(=O)N3CCN(C(=O)C4CC4)CC3)cnc3ccccc23)CC1 [Example 93, 1-(3-(4-(cyclopropanecarbonyl)piperazine-1-carbonyl)quinolin-4-yl)-4-methylpiperidine-4-carbonitrile] | 1000 to 10000 nM | < 500 nM
11 | CN(C)C(=O)Cn1cc(NC(=O)c2cnc3ccc(F)cc3c2-c2ccc(C3(C#N)CC3)cc2)cn1 [Cpd. 346, 4-(4-(1-cyanocyclopropyl)phenyl)-N-(1-(2-(dimethylamino)-2-oxoethyl)-1H-pyrazol-4-yl)-6-fluoroquinoline-3-carboxamide] | > 10000 nM | 1000 to 10000 nM
12 | CCNC(=O)N1CCN(C(=O)c2cnc3c(F)c(F)c(F)cc3c2N2CCC(C)(C#N)CC2)CC1 [Example 148, 4-(4-(4-cyano-4-methylpiperidin-1-yl)-6,7,8-trifluoroquinoline-3-carbonyl)-N-ethylpiperazine-1-carboxamide] | 1000 to 10000 nM | 1000 to 10000 nM
13 | COc1ccc2ncc(C(=O)N3CCN(C(C)C)CC3)c(N3CCC4(CC3)OCCO4)c2c1 [Example 8, (4-isopropylpiperazin-1-yl)(6-methoxy-4-(1,4-dioxa-8-azaspiro[4.5]decan-8-yl)quinolin-3-yl)methanone, TFA] | > 10000 nM | 1000 to 10000 nM
14 | CN(C)S(=O)(=O)N1CCN(C(=O)c2cnc3ccc(F)cc3c2-c2ccc(C(C)(C)C#N)cc2)CC1 [Example 261, 4-(4-(4-(2-cyanopropan-2-yl)phenyl)-6-fluoroquinoline-3-carbonyl)-N,N-dimethylpiperazine-1-sulfonamide] | < 500 nM | < 500 nM
15 | CS(=O)(=O)N1CCN(C(=O)c2cnc3ccc(F)cc3c2N2CCN(S(=O)(=O)C3CC3)CC2)CC1 [Example 252, (4-(4-(cyclopropylsulfonyl)piperazin-1-yl)-6-fluoroquinolin-3-yl)(4-(methylsulfonyl)piperazin-1-yl)methanone] | > 10000 nM | < 500 nM
16 | CS(=O)(=O)N1CCN(C(=O)c2cnc3ccc(F)cc3c2N2CCC3(CCCC3=O)CC2)CC1 [Example 251, 8-(6-fluoro-3-(4-(methylsulfonyl)piperazine-1-carbonyl)quinolin-4-yl)-8-azaspiro[4.5]decan-1-one] | 500 to 1000 nM | < 500 nM
17 | CS(=O)(=O)N1CCN(C(=O)c2cnc3ccc(F)cc3c2-c2ccc(CC#N)cc2)CC1 [Example 212, 2-(4-(6-fluoro-3-(4-(methylsulfonyl)piperazine-1-carbonyl)quinolin-4-yl)phenyl)acetonitrile] | 1000 to 10000 nM | < 500 nM
18 | C[C@@H]1CN(C(=O)c2cnc3ccc(F)cc3c2N2CCC3(CC2)OCCO3)C[C@H](C)O1 [Example 55, ((2S*,6R*)-2,6-dimethylmorpholino)(6-fluoro-4-(1,4-dioxa-8-azaspiro[4.5]decan-8-yl)quinolin-3-yl)methanone] | > 10000 nM | 1000 to 10000 nM
19 | N#CC1(c2ccccc2)CCN(c2c(C(=O)N3CCC(O)CC3)cnc3ccc(F)cc23)CC1 [Cpd. 331, 1-(6-fluoro-3-(4-hydroxypiperidine-1-carbonyl)quinolin-4-yl)-4-phenylpiperidine-4-carbonitrile] | 500 to 1000 nM | < 500 nM
20 | N#CC1(O)CCN(C(=O)c2cnc3ccc(F)cc3c2-c2ccc(C3(C#N)CC3)cc2)CC1 [Cpd. 340, 1-(4-(4-(1-cyanocyclopropyl)phenyl)-6-fluoroquinoline-3-carbonyl)-4-hydroxypiperidine-4-carbonitrile] | 1000 to 10000 nM | < 500 nM
21 | COc1ccc2ncc(C(=O)N3CCN(c4ccncc4)CC3)c(N3CCC4(CC3)OCCO4)c2c1 [Example 15, (6-methoxy-4-(1,4-dioxa-8-azaspiro[4.5]decan-8-yl)quinolin-3-yl)(4-(pyridin-4-yl)piperazin-1-yl)methanone, TFA] | > 10000 nM | 1000 to 10000 nM
22 | COc1ccc2ncc(C(=O)N3CCN(C(=O)c4cnn(C)c4)CC3)c(N3CCC4(CC3)OCCO4)c2c1 [Example 7, (6-methoxy-4-(1,4-dioxa-8-azaspiro[4.5]decan-8-yl)quinolin-3-yl)(4-(1-methyl-1H-pyrazole-4-carbonyl)piperazin-1-yl)methanone, TFA] | > 10000 nM | < 500 nM
23 | CC1(C#N)CCN(c2c(C(=O)N3CCN(C(=O)C4CC4)CC3)cnc3c(F)c(F)c(F)cc23)CC1 [Example 128, 1-(3-(4-(cyclopropanecarbonyl)piperazine-1-carbonyl)-6,7,8-trifluoroquinolin-4-yl)-4-methylpiperidine-4-carbonitrile] | 1000 to 10000 nM | < 500 nM

From patent publication US11795177B2, “Substituted quinoline analogs as aldehyde dehydrogenase 1A1 (ALDH1A1) inhibitors” (THE UNITED STATES OF AMERICA, AS REPRESENTED BY THE …, priority 2017, dated 2023)
